Drawing on publication PMC7736581, “Activation of the IRE1 RNase through remodeling of the kinase front pocket by ATP-competitive ligands” (Nature Communications, 2020), this text covers inhibition for three compounds.

Common to all, as to assay: biochemical
Holding throughout (design): Invitrogen kinase panel: Z'Lyte activity (ATP at Km) or LanthaScreen competitive ATP-site binding, percent inhibition
Background: Time-resolved FRET reads energy transfer from a long-lived donor to a nearby acceptor.

Assay [1] deals with PRKAA1 (Homo sapiens, UniProt Q13131).
The target of assay [2] is T1, JNK2 (Homo sapiens, UniProt P45984).
T1 construct: gene MAPK9

For assay [3], the target named is T2, CDK5/p25 (Homo sapiens, UniProt Q00535).
T2 construct: p25

Assay [4] deals with EphA7 (Homo sapiens, UniProt Q15375).
Assay [5] deals with T3, IRAK4 (Homo sapiens, UniProt Q9NWZ3).
T3 sequence (Q9NWZ3 1-460): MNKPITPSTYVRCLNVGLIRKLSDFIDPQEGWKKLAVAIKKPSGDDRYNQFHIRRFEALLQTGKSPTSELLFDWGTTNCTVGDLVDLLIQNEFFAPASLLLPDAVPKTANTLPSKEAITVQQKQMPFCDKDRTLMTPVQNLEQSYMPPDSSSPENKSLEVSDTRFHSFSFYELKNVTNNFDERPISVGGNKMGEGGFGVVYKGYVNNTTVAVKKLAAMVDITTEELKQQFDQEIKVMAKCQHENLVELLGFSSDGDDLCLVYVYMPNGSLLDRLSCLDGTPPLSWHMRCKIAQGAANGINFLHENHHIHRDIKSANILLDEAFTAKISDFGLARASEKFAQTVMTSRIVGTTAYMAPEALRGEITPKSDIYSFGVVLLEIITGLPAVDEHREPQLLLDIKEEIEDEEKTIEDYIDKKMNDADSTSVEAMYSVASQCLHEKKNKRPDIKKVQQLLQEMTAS

Assay [6] addresses T4, Flt3 (Homo sapiens, UniProt P36888).
T4 sequence (P36888 1-993): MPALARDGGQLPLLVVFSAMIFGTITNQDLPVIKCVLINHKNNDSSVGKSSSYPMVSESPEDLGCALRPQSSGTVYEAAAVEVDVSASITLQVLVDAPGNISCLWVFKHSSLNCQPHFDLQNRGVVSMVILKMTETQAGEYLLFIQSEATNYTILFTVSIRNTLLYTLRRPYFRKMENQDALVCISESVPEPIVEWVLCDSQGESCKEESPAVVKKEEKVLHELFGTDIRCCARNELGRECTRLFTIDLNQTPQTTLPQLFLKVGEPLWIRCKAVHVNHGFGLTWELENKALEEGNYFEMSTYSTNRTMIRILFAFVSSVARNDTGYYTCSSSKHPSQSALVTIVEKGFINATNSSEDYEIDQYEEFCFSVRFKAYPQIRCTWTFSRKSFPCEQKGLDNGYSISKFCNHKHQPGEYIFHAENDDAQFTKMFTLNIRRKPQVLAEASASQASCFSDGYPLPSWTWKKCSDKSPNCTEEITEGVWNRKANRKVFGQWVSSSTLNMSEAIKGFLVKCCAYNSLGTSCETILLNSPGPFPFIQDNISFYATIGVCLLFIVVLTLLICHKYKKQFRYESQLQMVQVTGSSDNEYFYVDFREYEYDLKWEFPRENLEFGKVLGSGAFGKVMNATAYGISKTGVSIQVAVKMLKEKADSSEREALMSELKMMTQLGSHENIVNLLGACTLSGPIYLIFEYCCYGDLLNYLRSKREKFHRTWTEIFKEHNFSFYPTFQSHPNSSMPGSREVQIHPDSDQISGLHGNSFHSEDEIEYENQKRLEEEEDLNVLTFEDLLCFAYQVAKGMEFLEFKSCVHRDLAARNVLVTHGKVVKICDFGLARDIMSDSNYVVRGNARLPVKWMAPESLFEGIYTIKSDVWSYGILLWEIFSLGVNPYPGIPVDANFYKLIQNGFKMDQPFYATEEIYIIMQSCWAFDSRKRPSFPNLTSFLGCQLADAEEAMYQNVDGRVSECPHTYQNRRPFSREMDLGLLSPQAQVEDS

PRKAA1, sequence (Q13131 whole entry): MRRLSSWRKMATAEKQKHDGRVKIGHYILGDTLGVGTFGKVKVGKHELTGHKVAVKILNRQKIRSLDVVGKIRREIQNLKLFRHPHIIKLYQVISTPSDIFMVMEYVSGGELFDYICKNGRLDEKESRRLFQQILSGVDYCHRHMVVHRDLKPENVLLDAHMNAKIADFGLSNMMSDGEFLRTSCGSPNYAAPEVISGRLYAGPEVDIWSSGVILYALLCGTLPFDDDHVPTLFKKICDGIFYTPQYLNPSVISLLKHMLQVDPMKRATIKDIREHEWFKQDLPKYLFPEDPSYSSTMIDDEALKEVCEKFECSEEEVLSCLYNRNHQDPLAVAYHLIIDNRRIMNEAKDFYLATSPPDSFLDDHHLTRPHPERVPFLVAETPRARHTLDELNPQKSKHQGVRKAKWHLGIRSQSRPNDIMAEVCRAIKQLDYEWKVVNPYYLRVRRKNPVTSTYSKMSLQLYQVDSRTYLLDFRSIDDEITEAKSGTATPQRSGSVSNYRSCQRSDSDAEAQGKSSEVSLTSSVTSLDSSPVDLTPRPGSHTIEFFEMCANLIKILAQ
PRKAA1, sequence (P54619 whole entry partner): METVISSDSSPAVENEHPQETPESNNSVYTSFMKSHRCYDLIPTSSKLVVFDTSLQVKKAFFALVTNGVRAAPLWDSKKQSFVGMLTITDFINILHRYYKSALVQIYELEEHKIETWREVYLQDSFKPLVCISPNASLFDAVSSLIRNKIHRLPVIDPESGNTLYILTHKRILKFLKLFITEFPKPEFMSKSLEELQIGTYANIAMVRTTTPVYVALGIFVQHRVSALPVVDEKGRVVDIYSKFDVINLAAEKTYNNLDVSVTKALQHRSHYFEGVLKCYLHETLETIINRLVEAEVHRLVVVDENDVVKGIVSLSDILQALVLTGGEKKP
PRKAA1, sequence (Q9Y478 whole entry partner): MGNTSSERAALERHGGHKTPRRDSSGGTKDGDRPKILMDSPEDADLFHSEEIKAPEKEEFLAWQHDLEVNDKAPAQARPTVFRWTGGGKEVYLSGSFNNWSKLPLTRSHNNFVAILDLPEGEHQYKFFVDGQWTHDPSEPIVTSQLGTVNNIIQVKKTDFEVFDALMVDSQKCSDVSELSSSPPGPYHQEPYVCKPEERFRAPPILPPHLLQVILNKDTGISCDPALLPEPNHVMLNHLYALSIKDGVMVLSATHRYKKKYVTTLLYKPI
T1 sequence (P45984 whole entry): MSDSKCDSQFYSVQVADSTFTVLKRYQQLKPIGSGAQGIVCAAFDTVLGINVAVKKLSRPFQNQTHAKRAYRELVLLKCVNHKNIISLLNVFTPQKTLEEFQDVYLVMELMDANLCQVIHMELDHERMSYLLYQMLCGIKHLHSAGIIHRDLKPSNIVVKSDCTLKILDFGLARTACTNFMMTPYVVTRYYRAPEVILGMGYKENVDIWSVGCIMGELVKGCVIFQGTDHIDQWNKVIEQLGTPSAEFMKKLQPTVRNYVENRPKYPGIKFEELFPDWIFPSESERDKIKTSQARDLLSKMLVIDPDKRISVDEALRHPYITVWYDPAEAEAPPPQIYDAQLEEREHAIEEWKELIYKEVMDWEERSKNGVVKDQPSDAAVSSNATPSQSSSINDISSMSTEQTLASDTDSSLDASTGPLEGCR
T2 sequence (Q00535 whole entry): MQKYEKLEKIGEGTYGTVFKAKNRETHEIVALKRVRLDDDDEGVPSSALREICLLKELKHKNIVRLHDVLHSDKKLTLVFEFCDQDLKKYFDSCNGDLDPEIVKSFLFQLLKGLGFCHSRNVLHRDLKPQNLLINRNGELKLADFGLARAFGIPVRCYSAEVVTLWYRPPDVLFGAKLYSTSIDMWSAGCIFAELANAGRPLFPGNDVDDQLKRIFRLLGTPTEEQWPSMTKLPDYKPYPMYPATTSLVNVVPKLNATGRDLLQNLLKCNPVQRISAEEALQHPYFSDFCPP
T2 sequence (Q15078 whole entry partner): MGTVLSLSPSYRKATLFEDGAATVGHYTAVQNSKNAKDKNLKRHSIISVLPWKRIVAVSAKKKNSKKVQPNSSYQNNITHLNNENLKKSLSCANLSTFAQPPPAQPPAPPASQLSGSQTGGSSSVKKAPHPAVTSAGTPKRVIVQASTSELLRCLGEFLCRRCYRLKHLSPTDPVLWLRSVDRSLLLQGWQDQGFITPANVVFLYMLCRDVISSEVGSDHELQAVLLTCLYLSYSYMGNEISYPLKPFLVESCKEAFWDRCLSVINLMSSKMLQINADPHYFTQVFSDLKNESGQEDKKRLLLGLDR
EphA7, sequence (Q15375 whole entry): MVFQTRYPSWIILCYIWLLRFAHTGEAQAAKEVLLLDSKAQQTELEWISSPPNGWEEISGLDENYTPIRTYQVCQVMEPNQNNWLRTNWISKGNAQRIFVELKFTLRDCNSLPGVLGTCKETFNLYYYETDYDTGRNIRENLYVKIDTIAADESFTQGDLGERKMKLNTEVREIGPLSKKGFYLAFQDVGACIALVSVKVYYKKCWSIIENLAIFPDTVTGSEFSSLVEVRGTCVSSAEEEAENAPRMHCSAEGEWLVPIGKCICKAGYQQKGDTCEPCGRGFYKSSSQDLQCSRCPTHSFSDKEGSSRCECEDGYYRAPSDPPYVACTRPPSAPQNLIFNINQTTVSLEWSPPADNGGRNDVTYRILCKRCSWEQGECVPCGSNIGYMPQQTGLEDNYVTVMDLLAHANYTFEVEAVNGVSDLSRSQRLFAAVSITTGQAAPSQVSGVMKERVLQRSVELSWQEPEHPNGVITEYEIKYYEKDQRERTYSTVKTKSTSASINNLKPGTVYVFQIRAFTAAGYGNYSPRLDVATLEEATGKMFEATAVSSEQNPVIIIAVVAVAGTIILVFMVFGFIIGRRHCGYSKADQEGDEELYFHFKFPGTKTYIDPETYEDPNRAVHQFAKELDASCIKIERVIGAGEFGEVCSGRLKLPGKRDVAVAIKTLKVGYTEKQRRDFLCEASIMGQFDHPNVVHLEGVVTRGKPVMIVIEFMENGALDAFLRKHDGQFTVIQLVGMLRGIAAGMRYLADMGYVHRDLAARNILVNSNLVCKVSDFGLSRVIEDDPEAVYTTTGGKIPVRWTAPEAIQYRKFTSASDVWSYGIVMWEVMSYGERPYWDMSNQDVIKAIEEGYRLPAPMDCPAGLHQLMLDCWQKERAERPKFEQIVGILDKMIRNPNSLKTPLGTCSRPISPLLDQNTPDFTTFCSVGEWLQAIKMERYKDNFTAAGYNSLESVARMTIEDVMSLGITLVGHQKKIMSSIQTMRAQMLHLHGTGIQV

As to `CC#CC(=O)Nc1cccc2c(Oc3ncccc3-c3ccnc(N[C@H]4CCCNC4)n3)c(C)ccc12` [G-7658], the inhibition (commonly the relative decrease from the control value, in per cent) at 1 µM is 12% in assay [1]; 72% in assay [2]; 4% in assay [3]; -1% in assay [4]; -1% in assay [5]; 16.5% in assay [6].
For `CCOC(=O)Nc1cccc2c(Oc3ncccc3-c3ccnc(N[C@H]4CCCNC4)n3)c(C)ccc12` [G-1749], the inhibition at 1 µM in assay [1] was found to be 0%; in assay [2], 79%; in assay [3] it was 3.5%; in assay [4], 9.5%; in assay [5], 8%; in assay [6], 8%.
As for `O=c1cc(-c2n[nH]c3ncc(-c4c(F)cccc4F)cc23)nc(N2CCC(O)CC2)[nH]1` [G-9807], the inhibition at 1 µM is 96.2% in assay [1]; 91.3% in assay [2]; 100% in assay [3]; 84.2% in assay [4]; 96.3% in assay [5]; 98.2% in assay [6].
